In this test the test system is Staphylococcus aureus. Kind of test: Antibacterial activity against Staphylococcus aureus ATCC 25923 assessed as reduction of bacterial count by broth microdilution method. Type of test: functional.

For `CN[C@H](CC(C)C)C(=O)N[C@H]1C(=O)N[C@@H](CC(N)=O)C(=O)N[C@H]2C(=O)N[C@H]3C(=O)N[C@H](C(=O)N[C@H](C(=O)O)c4cc(O)cc(O)c4-c4cc3ccc4O)[C@H](O)c3ccc(c(Cl)c3)Oc3cc2cc(c3O[C@@H]2O[C@H](CO)[C@@H](O)[C@H](O)[C@H]2O[C@H]2C[C@](C)(N)[C@H](O)[C@H](C)O2)Oc2ccc(cc2Cl)[C@H]1O` [VANCOMYCIN], the Log10 cfu amounted to 1.

(Values after ChEMBL document CHEMBL1137502, “Design and evaluation of analogues of the bacterial cell-wall peptidoglycan motif L-Lys-D-Ala-D-Ala for use in a vancomycin biosensor” (2007).)
